Measured values from ChEMBL document CHEMBL1201862, “PubChem BioAssay data set” (2004).
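Step 1: Grow cells in 96-well plates. Step 2: Expose to compound for 48 hours at 5 concentrations. Step 3: Interpolate endpoints linearly; if unreached, use highest concentration. GI50 marks 50% less growth.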 The source made the active and inactive calls. No stated cut-off is given here; in the data, active = GI50 up to about 1.1 µM and inactive = higher.

Columns and labels:
Assay in all cases: inhibition of tumour cell growth, NCI panel, 48 h
KM12 = system: KM12
MDA-N = system: MDA-N
HOP-92 = system: HOP-92
NCI-H226 = system: NCI-H226
IGROV-1 = system: IGROV-1
HCT-15 = system: HCT-15
T47D = system: T47D
786-0 = system: 786-0
SN12C = system: SN12C
SK-OV-3 = system: SK-OV-3
OVCAR-4 = system: OVCAR-4
MCF7 = system: MCF7
COLO 205 = system: COLO 205
NCI/ADR-RES = system: NCI/ADR-RES
HL-60 = system: HL-60
CCRF-CEM = system: CCRF-CEM
M14 = system: M14
HCC 2998 = system: HCC 2998
SNB-75 = system: SNB-75

Row | Compound | GI50 (KM12) | GI50 (MDA-N) | GI50 (HOP-92) | GI50 (NCI-H226) | GI50 (IGROV-1) | GI50 (HCT-15) | GI50 (T47D) | GI50 (786-0) | GI50 (SN12C) | GI50 (SK-OV-3) | GI50 (OVCAR-4) | GI50 (MCF7) | GI50 (COLO 205) | GI50 (NCI/ADR-RES) | GI50 (HL-60) | GI50 (CCRF-CEM) | GI50 (M14) | GI50 (HCC 2998) | GI50 (SNB-75)
1 | COc1ccc(C(=C(I)c2ccccc2)c2ccc(OC)cc2)cc1 | > 100 µM (inactive) | > 100 µM (inactive) | > 100 µM (inactive) | > 100 µM (inactive) | > 100 µM (inactive) | 65.6 µM | 19.1 µM (inactive) | > 100 µM (inactive) | > 100 µM (inactive) | > 100 µM (inactive) | > 100 µM (inactive) | 21.6 µM (inactive) | > 100 µM (inactive) | > 100 µM (inactive) | 64.9 µM (inactive) | > 100 µM (inactive) | > 100 µM (inactive) | > 100 µM (inactive) | –
2 | Cc1cc(-c2nc3cc(F)ccc3s2)ccc1N | 42.8 µM (inactive) | > 46.1 µM (inactive) | 18.7 µM (inactive) | < 0.051 µM (active) | < 0.01 µM (active) | 7.96 µM | < 0.01 µM (active) | 22.2 µM (inactive) | 31 µM (inactive) | 88.5 µM (inactive) | – | < 0.01 µM (active) | 8.69 µM (inactive) | 75.9 µM (inactive) | > 28.1 µM (inactive) | 1.95 µM (inactive) | 39.2 µM (inactive) | < 0.01 µM (active) | 20.4 µM (inactive)
3 | O=C1CSC2(CC(/C=C/C=C/c3ccccc3)=NN2c2cccc(S(=O)(=O)O)c2)N1c1nc2ccccc2s1 (stereo not given) | 45.8 µM (inactive) | 52 µM (inactive) | 34.8 µM (inactive) | 24.8 µM (inactive) | 33.7 µM (inactive) | 67.9 µM | 23.4 µM (inactive) | 40.2 µM (inactive) | 62.5 µM (inactive) | – | 36.9 µM (inactive) | 29.6 µM (inactive) | 50.8 µM (inactive) | 51.1 µM (inactive) | 4.24 µM (inactive) | 20.8 µM (inactive) | 60.4 µM (inactive) | 69.7 µM (inactive) | > 100 µM (inactive)
4 | O=C(NCCCN1CCN(CCCNC(=O)Nc2cccc3ccccc23)CC1)Nc1cccc2ccccc12 | 19.3 µM (inactive) | 15.6 µM (inactive) | 13.8 µM (inactive) | – | 17.3 µM (inactive) | 16.6 µM | 13.2 µM (inactive) | 18.9 µM (inactive) | 16.3 µM (inactive) | – | 25.4 µM (inactive) | 17.5 µM (inactive) | 15.7 µM (inactive) | 84.9 µM (inactive) | 16.3 µM (inactive) | 22.2 µM (inactive) | 16.3 µM (inactive) | 2.29 µM (inactive) | 15.5 µM (inactive)
5 | CC(O)C1CC1(CO)CNc1cc(Cl)nc(N)n1 (stereo not given) | > 100 µM (inactive) | > 100 µM (inactive) | > 100 µM (inactive) | > 100 µM (inactive) | > 100 µM (inactive) | > 100 µM | > 100 µM (inactive) | > 100 µM (inactive) | > 100 µM (inactive) | > 100 µM (inactive) | > 100 µM (inactive) | > 100 µM (inactive) | > 100 µM (inactive) | > 100 µM (inactive) | > 100 µM (inactive) | > 100 µM (inactive) | – | > 100 µM (inactive) | > 100 µM (inactive)
6 | O=c1oc2cc(/N=C/c3ccccc3Cl)ccc2c2ccccc12 | > 100 µM (inactive) | > 100 µM (inactive) | > 100 µM (inactive) | > 100 µM (inactive) | > 100 µM (inactive) | > 100 µM | > 100 µM (inactive) | > 100 µM (inactive) | > 100 µM (inactive) | – | > 100 µM (inactive) | 14.2 µM (inactive) | > 100 µM (inactive) | > 100 µM (inactive) | 57.1 µM (inactive) | > 100 µM (inactive) | > 100 µM (inactive) | > 100 µM (inactive) | > 100 µM (inactive)
7 | O=c1oc2c/c(=C\c3ccccc3)c(=O)c3cccc1c3-2 | 24.9 µM (inactive) | 20.8 µM (inactive) | 19.6 µM (inactive) | 31.7 µM (inactive) | 23 µM (inactive) | 36.6 µM | 27.3 µM (inactive) | 22.8 µM (inactive) | 47.6 µM (inactive) | > 100 µM (inactive) | – | > 10 µM (inactive) | 37.3 µM (inactive) | 33.7 µM (inactive) | 27.1 µM (inactive) | – | 22.4 µM (inactive) | > 100 µM (inactive) | 41.4 µM (inactive)
8 | COC(=O)C1CCN(C(=O)OC(C)(C)C)CC1 | > 100 µM (inactive) | > 100 µM (inactive) | > 100 µM (inactive) | – | > 100 µM (inactive) | > 100 µM | > 100 µM (inactive) | > 100 µM (inactive) | > 100 µM (inactive) | – | > 100 µM (inactive) | > 100 µM (inactive) | > 100 µM (inactive) | > 100 µM (inactive) | > 100 µM (inactive) | > 100 µM (inactive) | > 100 µM (inactive) | > 100 µM (inactive) | > 100 µM (inactive)
9 | CCCNC1=C2C[C@@H](C)C[C@@H](OC)[C@@H](OC(=O)CCCN)[C@H](C)/C=C(\C)[C@@H](OC(N)=O)[C@H](OC)/C=C\C=C(/C)C(=O)NC(=CC1=O)C2=O | 10.6 µM (inactive) | 10.3 µM (inactive) | 12.7 µM (inactive) | 18.5 µM (inactive) | 16.1 µM (inactive) | 21.5 µM | 12.7 µM (inactive) | 20.8 µM (inactive) | 22.7 µM (inactive) | 16.4 µM (inactive) | 18.7 µM (inactive) | 7.69 µM (inactive) | 3.52 µM (inactive) | 28.8 µM (inactive) | 2.13 µM (inactive) | 2.52 µM (inactive) | 15.2 µM (inactive) | 18.8 µM (inactive) | –
10 | CCOc1ccc(NC(=O)C(=O)Nn2c(N)nnc2N)cc1 | > 100 µM (inactive) | > 100 µM (inactive) | > 100 µM (inactive) | > 100 µM (inactive) | > 100 µM (inactive) | > 100 µM | > 100 µM (inactive) | > 100 µM (inactive) | > 100 µM (inactive) | > 100 µM (inactive) | > 100 µM (inactive) | > 100 µM (inactive) | – | > 100 µM (inactive) | > 100 µM (inactive) | > 100 µM (inactive) | > 100 µM (inactive) | > 100 µM (inactive) | > 100 µM (inactive)
11 | CCOC(=O)c1c2c(n3ccccc13)C(=O)c1ccccc1C2=O | > 100 µM (inactive) | > 100 µM (inactive) | 44.8 µM (inactive) | > 100 µM (inactive) | > 100 µM (inactive) | 11.1 µM | > 100 µM (inactive) | 19.1 µM (inactive) | > 100 µM (inactive) | > 100 µM (inactive) | > 100 µM (inactive) | 46 µM (inactive) | 26.5 µM (inactive) | > 100 µM (inactive) | > 100 µM (inactive) | – | > 100 µM (inactive) | 2.55 µM (inactive) | 19.5 µM (inactive)
